The text below walks through data of patent publication US20060094059A1, “Methods for identifying new drug leads and new therapeutic uses for known drugs” (Odyssey Thera, Inc., priority 2004, published 2006).

What all share (assay type): cell-based, human
The subject of one assay is Cofilin:LIMK2. Put plainly: Protein-fragment complementation assay Cofilin:LIMK2. To be noted: hit in Cofilin/LIMK2 assay; drugs screened at 10 micromolar. From the text: (§1) To construct dynamic assays for protein-protein complexes, we used a protein-fragment complementation assay strategy (PCAs) in intact human cells. (A variety of other suitable assays, and reporter options, are described in detail below.) The principle of PCA is that complementary polypeptide fragments (F[1] and F[2]) of a reporter protein or enzyme will fold into an active form only if fused to two proteins which interact and bring the complementary fragments of the reporter protein into proximity. Reconstitution of the fragments of the reporter protein generates a fluorescent signal that can be quantified in intact cells, and the amount of the signal is proportional to the amount of the protein-protein complex used in constructing the assay. Given a suitable reporter type, the subcellular location of the complex can also be measured.
(§2) Reporter fragments for PCA were generated by oligonucleotide synthesis (Blue Heron Biotechnology, Bothell, Wash.), starting with the sequence of yellow fluorescent protein (YFP). First, oligonucleotides coding for polypeptide fragments YFP[1]and YFP[2] […] Next, PCR mutagenesis was used to generate the mutant fragments IFP[1] and IFP[2]. The IFP[1] fragment corresponds to YFP[1]-(F46L, F64L, M153T) and the IFP[2] fragment corresponds to YFP[2]-(V163A, S175G). […]

The next assay relates to Smad3:HDAC. As to the kind of experiment: Protein-fragment complementation assay Smad3:HDAC. The following applies: hit in HDAC/SMAD3 assay; drugs screened at 10 micromolar.
Description: as §1, §2

A further assay concerns HSP90:Eef2k. As to the kind of experiment: Protein-fragment complementation assay Hsp90:Eef2k.
Description: as §1
Reporter fragments for PCA were generated by oligonucleotide synthesis (Blue Heron Biotechnology, Bothell, Wash.), starting with the sequence of yellow fluorescent protein (YFP). First, oligonucleotides coding for polypeptide fragments YFP[1]and YFP[2] […] Next, PCR mutagenesis was used to generate the mutant fragments IFP[1] and IFP[2]. The IFP[1] fragment corresponds to YFP[1]-(F46L, F64L, M153T) and the IFP[2] fragment corresponds to YFP[2]-(V163A, S175G). […] The YFP[1], YFP[2], IFP[1] and IFP[2] fragments were amplified by PCR to incorporate restriction sites and a linker sequence, described below, in configurations that would allow fusion of a gene of interest to either the 5′- or 3′-end of each reporter fragment. The reporter-linker fragment cassettes were subcloned into a mammalian expression vector (pcDNA3.1Z, Invitrogen) that had been modified to incorporate the replication origin (oriP) of the Epstein Barr virus (EBV). […] Additionally, these vectors still retain the SV40 origin, allowing for episomal expression in cell lines expressing the SV40 large T antigen (e.g. HEK293T, Jurkat or COS). […]

In a further assay the test system is PIN1:JUN complexes. Put plainly: Protein-fragment complementation assay PIN1:JUN.
Description: as §1, §2

Regarding `O=C(Nc1ccc([N+](=O)[O-])cc1Cl)c1cc(Cl)ccc1O` [Niclosamide], the Assay activity result is “Cofilin/LIMK2,” in the assay with Cofilin:LIMK2; “HDAC/SMAD3,” in the assay on Smad3:HDAC; “HSP90/Eef2k,” in the assay on HSP90:Eef2k (hit in HSP90/Eef2k assay, drugs screened at 10 micromolar); “PIN1/JUN,” in the assay on PIN1:JUN complexes (hit in PIN1/JUN assay, drugs screened at 10 micromolar). Moreover, the “level of HSP90:Eef2k complexes (intensity of the fluorescence)” value in the assay with HSP90:Eef2k (FIG. 3D) was “decrease in the level”. Also, the “level of PIN1:JUN complexes (intensity of the fluorescence)” value in the assay on PIN1:JUN complexes (FIG. 3A) was “decrease in the level”.
